# Reference: patent publication US12281180B2, “Peptoid-peptide macrocycles, pharmaceutical compositions and methods of using the same” (New York University, priority 2018, dated 2025)
# Numbered stars: 1 amine (or outer) side, 2 acyl side, 3 side chain; on linkers, the order of the positions; unused ones are H or OH. Square brackets hold non-standard residues; d marks the D form. Peptide text beside a SMILES is read from it. N(2-(2-PhOPh)Et)Gly = O=C(O)CNCCc1ccccc1Oc1ccccc1; Gly(N-3,5-(OMe)2-Ph) = COc1cc(NCC(=O)O)cc(OC)c1; X1 = COc1ccc([C@H](C)N(CC(=O)[*:2])[*:1])cc1; N((CH2)3OiPr)Gly = CC(C)OCCCNCC(=O)O
# Columns and labels:
# [1] = test system: Wnt signaling in zebrafish embryos; assay: Zebrafish phenotypic assay of Wnt signaling (eye development); format: in vivo
# Description: Rescue of eye development in Wnt-activated zebrafish embryos by the hit oligomer macrocycle—To evaluate the efficacy of 13 in vivo, a zebrafish model was utilized. The relevance of the model for our studies is that zebrafish embryos with Wnt activating mutations in the AXIN gene, a component of the β-catenin destruction complex, fail to develop eyes or a forebrain. The phenotype can be recapitulated by treatment with an inhibitor (termed BIO) for another β-catenin destruction complex member, GSK3, in embryos at 6 hours post-fertilization (hpf). It would then be anticipated that 13 inhibits the chemically over-activated Wnt signal, and potentially rescue eye development. To test this compound BIO was added to zebrafish embryos at 6 hpf with and without 13 as described in FIG. 10A.
# Zebrafish Experiments The zebrafish phenotypic assay was conducted using wildtype zebrafish embryos seeded into a 96 well round bottom plate in 50 μl of blue zebrafish embryo media. At 50% epiboly, roughly 5.5 hours post fertilization, 50 ul of 30 μM cyclic peptoid compound was added. About 30 minutes later at shield stage, 50 μl 6 nM (3×) BIO was added. The embryos were then visualized for the presence of eyes and imaged at 30 hours post fertilization.
# [2] = biological target: β-catenin:TCF4 interaction (Homo sapiens, UniProt P35222); settings: read-out: IC50 for inhibition of β-catenin binding to TCF4 N-terminal β-catenin binding domain; 5 nM His6-β-catenin
# [3] = test system: LNCaP-abl and LNCaP-95 cells; assay: RT-qPCR of endogenous Wnt and AR target genes; format: cell-based; settings: 10 μM, 24 hours
# Method: These cell lines were derived from androgen-sensitive LNCaP cells, and passaged in androgen-deprived media to mimic the development of castration resistance in patient tumors. mRNA from LNCaP-abl and LNCaP-95 cells treated with DMSO (vehicle) was isolated, 10 μM 13 and linear 13 for 24 hours to check the expression of endogenous Wnt and AR target genes (FIG. 8A). […] AR-V7 is particularly challenging to target as most AR antagonists target the ligand binding domain.
# (§1) Cell Culture LNCaP-abl and LNCaP-95 cells were cultured in indicator free RPMI 1640 media (Life) supplemented with 10% charcoal stripped FBS, 1% penn/strep, and 1% L-Glutamine. HEK-293 Cells were cultured in DMEM media (Life) supplemented with 10% FBS and 1% penn/strep. Luciferase assays were conducted using stably transfected TOP-flash and 3×ARE LNCaP-abl cell lines. For the Wnt pathway, TOP-Flash LNCaP-abl cells were treated with siAPC for 24 hours followed by 24 hours treatment with compound. For the AR-pathway, 3×ARE LNCaP-abl cells were treated for 48 hours with compound, with the addition of R1881 for the final 8 hours. Both were measured using the ONE-Glo detection kit (Promega) and reported data is standardized to the cell-titer control values. Co-immunoprecipitation was carried out using HEK293 cells transfected with either myc-TCF (addgene #32738) or myc-TCF dominant negative (addgene #32739) followed by 48 hours of treatment with compound. Cells were lysed using trition lysis buffer and 1 mg total protein was incubated overnight at 4 C with 40 μl anti-cMyc magnetic beads (Thermo). The beads were washed 3× with lysis buffer then boiled in 2× sample loading dye. SDS-PAGE and western blotting were performed using anti-myc (CST 2276) and anti-β-catenin (CST 8480). RT-qPCR was performed using RNA isolated with the RNEasy kit (Qiagen) from LNCaP-abl and LNCaP-95 cells after 24 hour treatment with 10 μM compound. The Verso cDNA synthesis kit (Thermo) with 1 μg total RNA was used, and qPCR data was collected using Fast SYBR Green Master Mix on a QuantiStudio 6 Flex (Life Technologies). 2D proliferation assays were conducted using 384 well plates seeded with 2000 cells/well LNCaP-abl or LNCaP-95 cells. After 5 days of treatment the cell viability was measured with the CellTiter-Fluor Cell Viability Assay (Promega) and data is reported standardized to DMSO control.
# Wnt signaling pathway = assay: TOP-Flash Wnt luciferase reporter assay; format: cell-based; settings: for IC50: TOP-Flash LNCaP-abl cells, siAPC 24 h then 24 h compound, read-out: IC50 for Wnt luciferase inhibition
# Method: The macrocycles were evaluated for their ability to inhibit the Wnt signaling pathway in cell culture. The macrocycles were administered at a concentration of 10 micromolar, and the activity was monitored with a luciferase reporter assay responsive to signaling through the Wnt pathway. […] The macrocycles were also observed to exert minimal cellular toxicity at the 10 micromolar concentration. […] Cells were incubated with 5 μM of peptoid macrocycles prior to co-IP.
# (§2) Compound testing and identification of a hit compound—Using a TOP-Flash Wnt luciferase reporter, 12 oligomers identified from in silico modeling for inhibitory activity (FIG. 6A) were tested. At […] concentration, all compounds had some level of Wnt inhibitory activity in cell culture, with varying degrees of efficacy. Also employed was a 3×-Androgen Response Element (ARE) luciferase reporter to measure the effect on AR activity. […] FIG. 2B depicts the predicted structure and contacts of the β-catenin: 13 complex.
# AR signaling = assay: 3x-Androgen Response Element (ARE) luciferase reporter assay; format: cell-based; settings: for IC50: 3xARE LNCaP-abl cells, 48 h compound, read-out: IC50 for inhibition of the AR luciferase reporter
# Method: as §2
# [4] = biological target: T1, E-cadherin:β-catenin interaction (Homo sapiens, UniProt P35222); assay: Two-hybrid like assay, E-cadherin with β-catenin; format: cell-based
# T1 sequence (P35222 1-781): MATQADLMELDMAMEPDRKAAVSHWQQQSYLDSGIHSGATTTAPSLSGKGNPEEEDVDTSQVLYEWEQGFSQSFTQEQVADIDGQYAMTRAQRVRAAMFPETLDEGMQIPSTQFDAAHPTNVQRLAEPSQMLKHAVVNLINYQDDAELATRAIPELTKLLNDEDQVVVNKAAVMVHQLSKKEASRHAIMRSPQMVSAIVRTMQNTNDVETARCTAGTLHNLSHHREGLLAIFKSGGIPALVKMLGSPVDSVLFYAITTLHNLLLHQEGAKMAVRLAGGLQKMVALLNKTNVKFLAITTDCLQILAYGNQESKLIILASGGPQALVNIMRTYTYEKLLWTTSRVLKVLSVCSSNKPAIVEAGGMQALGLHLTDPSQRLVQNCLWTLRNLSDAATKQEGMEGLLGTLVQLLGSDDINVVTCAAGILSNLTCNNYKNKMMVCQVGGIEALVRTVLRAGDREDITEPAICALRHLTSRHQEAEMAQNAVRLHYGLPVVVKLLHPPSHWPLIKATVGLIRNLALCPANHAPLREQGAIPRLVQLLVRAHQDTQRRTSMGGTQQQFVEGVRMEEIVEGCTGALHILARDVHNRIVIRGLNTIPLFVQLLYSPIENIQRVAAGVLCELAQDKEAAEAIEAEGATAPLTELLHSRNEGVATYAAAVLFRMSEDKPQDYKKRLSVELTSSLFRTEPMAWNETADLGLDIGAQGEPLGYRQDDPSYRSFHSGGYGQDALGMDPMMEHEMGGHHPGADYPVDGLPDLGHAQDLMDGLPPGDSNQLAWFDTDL
# [5] = biological target: T2, β-catenin:TCF family interaction (Homo sapiens, UniProt P35222); assay: Two-hybrid like assay of β-catenin:TCF family member interactions; format: cell-based
# T2 sequence (P35222 1-781): T1 sequence (P35222 1-781)
# LNCaP-abl spheroids = assay: Spheroid 3D cell culture (PrestoBlue viability, spheroid area); format: cell-based
# Method: The effects on spheroid formation and growth were evaluated following treatment with DMSO, 13, or linear 13 administered at the time of seeding at low cell density in a 384 well plate. In a separate experiment, to test the impact on pre-formed spheroids, cells were treated five days after initial seeding. Spheroids from both experiments were grown for 22 days, with compound refreshed on days 5, 9, 13, 16, and 20. […] PrestoBlue was used to measure cell viability on day 22 (FIG. 9B). […] FIG. 9C-F depicts spheroid area over time based on size measurements from the images taken throughout the experiment.
# Spheroid 3D Cell Culture LNCaP-abl cells were seeded into 384 well ultra-low attachment plates (Corning), 1000 cells/well. Varying concentrations of compound were added either on the same day as seeding or on day 5. Media was changed every 3-4 days using a Biotek automated media exchanger. Images were taken using an ArraySca VTI (Thermo) on days 5, 9, 13, 16, 20, and 22. A final viability measurement was taken on day 22 using PrestoBlue reagent (Thermo).
# [6] = biological target: T3, β-catenin:TCF4 protein interaction (Homo sapiens, UniProt P35222); assay: Co-immunoprecipitation of myc-TCF4 and endogenous β-catenin in HEK293 cells; format: cell-based; settings: 10 μM, 48 hour treatment
# T3 construct: endogenous in cells; host or cells: HEK293 (β-catenin endogenous; myc-TCF4 transfected from addgene #32738)
# T3 sequence (P35222 2-781 limits assumed): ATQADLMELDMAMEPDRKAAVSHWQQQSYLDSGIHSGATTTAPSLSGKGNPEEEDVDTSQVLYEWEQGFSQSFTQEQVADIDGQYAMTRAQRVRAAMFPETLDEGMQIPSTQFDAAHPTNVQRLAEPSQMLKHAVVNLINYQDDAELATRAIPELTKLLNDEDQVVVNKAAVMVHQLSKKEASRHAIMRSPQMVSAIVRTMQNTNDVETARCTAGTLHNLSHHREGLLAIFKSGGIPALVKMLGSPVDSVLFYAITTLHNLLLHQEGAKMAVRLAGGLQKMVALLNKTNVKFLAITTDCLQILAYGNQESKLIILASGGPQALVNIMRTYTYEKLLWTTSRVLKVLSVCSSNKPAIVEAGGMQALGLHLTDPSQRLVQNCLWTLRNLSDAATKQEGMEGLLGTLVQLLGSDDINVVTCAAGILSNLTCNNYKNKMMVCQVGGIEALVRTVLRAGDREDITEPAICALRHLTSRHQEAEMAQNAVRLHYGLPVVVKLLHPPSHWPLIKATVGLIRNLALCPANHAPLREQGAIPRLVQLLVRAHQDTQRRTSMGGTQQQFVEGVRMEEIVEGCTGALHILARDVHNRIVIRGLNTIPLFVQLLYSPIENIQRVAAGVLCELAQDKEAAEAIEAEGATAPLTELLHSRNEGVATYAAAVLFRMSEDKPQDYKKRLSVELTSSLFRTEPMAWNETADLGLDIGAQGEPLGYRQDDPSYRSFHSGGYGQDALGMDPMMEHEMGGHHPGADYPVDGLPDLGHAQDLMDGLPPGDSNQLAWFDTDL
# Method: HEK293 cells were transiently transfected with a plasmid expressing full length, myc-tagged TCF4.
# as §1, with “The beads were washed 3× with lysis buffer then boiled in 2× sample loading dye. SDS-PAGE and western blotting were performed using anti-myc (CST 2276) and anti-β-catenin (CST 8480). RT-qPCR was performed using RNA isolated with the RNEasy kit (Qiagen) from LNCaP-abl and LNCaP-95 cells after 24 hour treatment with 10 μM compound. The Verso cDNA synthesis kit (Thermo) with 1 μg total RNA was used, and qPCR data was collected using Fast SYBR Green Master Mix on a QuantiStudio 6 Flex (Life Technologies). 2D proliferation assays were conducted using 384 well plates seeded with 2000 cells/well LNCaP-abl or LNCaP-95 cells.” left out
# [7] = 3 additional independent experiments, each
# [8] = first experiment, eight fish, BIO added at 6 hpf with or without 13
compound,measurement,setting,value
"O=C1Nc2cc(Br)ccc2/C1=C1/Nc2ccccc2/C1=N\O [BIO, reference compound]",Fish that developed eyes,[1]; [7],0/8
same,Fish that developed eyes,[1]; [8],one of the eight fish
"COc1ccc([C@H](C)N2CC(=O)N[C@H](C)C(=O)N(CCc3ccccc3Oc3ccccc3)CC(=O)N(c3cc(OC)cc(OC)c3)CC(=O)N(CCCOC(C)C)CC(=O)N([C@@H](C)c3ccc(OC)cc3)CC2=O)cc1 [Compound 13] (cyclo([dA][N(2-(2-PhOPh)Et)Gly][Gly(N-3,5-(OMe)2-Ph)][N((CH2)3OiPr)Gly][X1][X1]))",IC50,[2],5.44 µM
same,AR mRNA,[3],decreased
same,Cyclin D1 mRNA,[3],decreased
same,FKBP5 mRNA,[3],decreased
same,PSA mRNA,[3],decreased
same,Transcription of AR splice variant AR-V7,[3],decreased
same,Transcription of E-cadherin,[3],increased
same,cMYC mRNA,[3],decreased
same,"Wnt inhibitory activity, TOP-Flash Wnt luciferase reporter","Wnt signaling pathway; 10 µM concentration, cell culture",more effective
same,IC50,Wnt signaling pathway,105 nM
same,"Inhibition of AR signaling, 3x-ARE luciferase reporter",AR signaling,more effective
same,IC50,AR signaling,1.02 µM
same,Inhibition of E-cadherin interaction with β-catenin,[4],not
same,Inhibition of TCF family interaction with β-catenin,[5],inhibits
same,Spheroid growth / area over time,"LNCaP-abl spheroids; 0.5 μM, added on day 0",slowed the growth
same,Spheroid formation / area over time,"LNCaP-abl spheroids; 20 μM, 10 μM, 5 μM, 2 μM and 1 μM, added on day 0 with seeding",prevented spheroid formation
same,Growth of preformed spheroids / area over time,"LNCaP-abl spheroids; at or above 2 μM, treatment started at day 5",stalled the growth of preformed spheroids
same,Spheroid growth / area over time,LNCaP-abl spheroids; between 0.001 µM and 0.1 μM,little effect
same,"β-catenin:TCF interaction by co-immunoprecipitation, compared to DMSO",[6],decreased
same,Fish that developed eyes,[1]; [7],8/8
same,Fish that developed eyes,[1]; [8],all the fish
"NH2-D-Ala-N-mpp, N-dmp, N-ipp, N-Smpe, N-Smpe-OH [linear 13]",IC50,Wnt signaling pathway,3270 nM
same,IC50,AR signaling,7.63 µM
